Legend:
Assay type in all cases: in vivo
wheat [1] = assay: Evaluation Example 8: Comparison of Elongated Plant Height of Wheat; details: petri dish, 5 mL, 24° C, 7th day after seeding, EGT 0.5 mM and/or component (A) 0.5 mM
Description: The plant growth regulators of Examples 19 and 20 and Comparative Examples 26 to 28 were prepared so as to attain the concentrations indicated in Table 8 below. EGT, guanine and thymine were commercially available products, and pure water was used as a solvent.
(§1) Into a 9 cm petri dish on which filter paper was spread, 5 mL of the plant growth regulator was added. Ten seeds of wheat were sown per one petri dish. In a thermostatic chamber set at room temperature of 24° C., the light period was 16 hours and the dark period was 8 hours. The light conditions were set using a fluorescent lamp (PLANT FLEC, 40 W LED fluorescent lamp for plant growth, electric bulb color, available from Nippon Medical and Chemical Instruments Co., Ltd.) such that the light intensity was 5000 lx in the central part under irradiation with the fluorescent lamp.
(§2) The plant height of the wheat on the 7th day after seeding was evaluated.

wheat [2] = assay: Evaluation Example 9: Comparison of Elongated Plant Height of Wheat; details: petri dish, 5 mL, 24° C, 7th day after seeding, EGT 0.5 mM and/or component (A) 0.5 mM
Description: The plant growth regulators of Examples 21 and 22 and Comparative Examples 29 to 31 were prepared so as to attain the concentrations indicated in Table 9 below. EGT, trehalose and inositol were commercially available products, and pure water was used as a solvent.
as §1, §2

tomato (Regina) = assay: Evaluation Example 14: Comparison of Number of Fruits and Total Fruit Weight of Tomato; details: 50 mL on 32nd, 34th, 36th days, fruits ≥20 mm collected 75th day after seeding, EGT 0.1 mM and/or Arg 0.1 mM
Description: The plant growth regulators of Example 35 and Comparative Examples 48 and 49 were prepared so as to attain the concentrations indicated in Table 14 below. EGT and Arg were commercially available products, and pure water was used as a solvent.
In a plastic pot having a diameter of 135 mm and a height of 110 mm, 1 kg of granular soil (Kumiai horticultural soil) was placed, and one individual tomato (Regina) was sown per one pot.
(§3) The tomato was managed in a greenhouse set at room temperature of 25° C. Chemical treatment was started 5 weeks after seeding. More specifically, on the 32nd, 34th, and 36th days after seeding, 50 mL of the plant growth regulator was added.
On the 75th day after seeding, fruits having a diameter of 20 mm or greater were collected, and the number and total weight of the collected fruits were evaluated.

wheat [3] = assay: Evaluation Example 15: Comparison of Elongated Plant Height of Wheat; details: petri dish, 5 mL, 24° C, 7th day after seeding, EGT 1 mM and/or carnitine 10 mM
Description: The plant growth regulators of Example 36 and Comparative Examples 50 and 51 were prepared so as to attain the concentrations indicated in Table 15 below. EGT and carnitine were commercially available products, and pure water was used as a solvent.
as §1, §2

[4] = tested on: Arabidopsis thaliana (Col-0); assay: Evaluation Example 2: Comparison of Seed Yield of Arabidopsis thaliana; details: 50 mL added on 8th, 10th, 12th, 14th days after seeding; harvest 89th day; EGT 1 mM and/or component (A) 0.1 mM
Description: The plant growth regulators of Examples 3 to 5 and Comparative Examples 4 to 7 were prepared so as to attain the concentrations indicated in Table 2 below. EGT, citric acid, GB and GSSG were commercially available products, and pure water was used as a solvent.
One individual Arabidopsis thaliana (Col-0) was sown in a plastic pot having a diameter of 60 mm and a height of 55 mm. Plastic deep dishes each having a diameter of 160 mm and a height of 28 mm were prepared, and six pots were respectively placed therein. As soil, 45 mL of vermiculite, 22.5 mL of granular soil (Kumiai horticultural soil), and 22.5 mL of vermiculite were placed in the pot in this order.
In a growth chamber set at room temperature of 22° C., the light period was 16 hours and the dark period was 8 hours. The light conditions were set such that the light intensity was 5000 lx in the central part under irradiation with the fluorescent lamp. Water supply was conducted from the bottom, and the water level was set at about 5 mm. Chemical treatment was started […]. More specifically, on the 8th, 10th, 12th, and 14th days after seeding, 50 mL of the plant growth regulator was added instead of water supply.
On the 89th day after seeding, seeds were harvested, and the seed yield was evaluated.

wheat [5] = assay: Evaluation Example 16: Comparison of Elongated Plant Height of Wheat; details: petri dish, 5 mL, 24° C, 7th day after seeding, EGT 1 mM and/or trehalose 0.01 or 0.1 mM
Description: The plant growth regulators of Examples 37 and 38 and Comparative Examples 52 to 54 were prepared so as to attain the concentrations indicated in Table 16 below. EGT and trehalose were commercially available products, and pure water was used as a solvent.
as §1, §2

tomato (Micro Tom) = assay: Evaluation Example 12: Comparison of Number of Flowers and Buds of Tomato; details: 50 mL on 32nd, 34th, 36th days, evaluated 83rd day after seeding, EGT 0.1 mM and/or component (A) 0.1 mM
Description: The plant growth regulators of Examples 32 and 33 and Comparative Examples 43 to 45 were prepared so as to attain the concentrations indicated in Table 12 below. EGT, Arg and Glu were commercially available products, and pure water was used as a solvent.
In a plastic pot having a diameter of 135 mm and a height of 110 mm, 1 kg of granular soil (Kumiai horticultural soil) was placed, and one individual tomato (Micro Tom) was sown per one pot.
as §3
On the 83rd day after seeding, the number of flowers and buds was evaluated.

rapeseed [6] = assay: Evaluation Example 3: Comparison of Elongated Plant Height of Rapeseed; details: petri dish, 5 mL, 24° C, 7th day after seeding, EGT 1 mM and/or Arg 1 mM
Description: The plant growth regulators of Example 6 and Comparative Examples 8 and 9 were prepared so as to attain the concentrations indicated in Table 3 below. EGT and Arg were commercially available products, and pure water was used as a solvent.
as §1, with “Seven” for “Ten”, “rapeseed” for “wheat”
(§4) The plant height of the rapeseed on the 7th day after seeding was evaluated.

rapeseed [7] = assay: Evaluation Example 4: Comparison of Elongated Plant Height of Rapeseed; details: petri dish, 5 mL, 24° C, 7th day after seeding, EGT 1 mM and/or component (A) 1 mM
Description: The plant growth regulators of Examples 7 and 8 and Comparative Examples 10 to 12 were prepared so as to attain the concentrations indicated in Table 4 below. EGT, Asn and Lys were commercially available products, and pure water was used as a solvent.
as §1, with “rapeseed” for “wheat”
as §4

rapeseed [8] = assay: Evaluation Example 7: Comparison of Elongated Plant Height of Rapeseed; details: petri dish, 5 mL, 24° C, 7th day after seeding, EGT 0.5 mM and/or uracil 0.5 mM
Description: The plant growth regulators of Example 18 and Comparative Examples 24 and 25 were prepared so as to attain the concentrations indicated in Table 7 below. EGT and uracil were commercially available products, and pure water was used as a solvent.
as §1, with “rapeseed” for “wheat”
as §4

wheat [9] = assay: Evaluation Example 17: Comparison of Elongated Plant Height of Wheat; details: petri dish, 5 mL, 24° C, 7th day after seeding, EGT 1 mM and/or uracil 0.01, 0.1 or 10 mM
Description: The plant growth regulators of Examples 39 to 41 and Comparative Examples 55 to 58 were prepared so as to attain the concentrations indicated in Table 17 below. EGT and uracil were commercially available products, and pure water was used as a solvent.
as §1, §2

SMILES: Cc1c[nH]c(=O)[nH]c1=O [compound 28, thymine]
- Elongated plant height, ratio to untreated control (wheat [1]): 0.9

SMILES: C[N+](C)(C)[C@@H](Cc1c[nH]c(=S)[nH]1)C(=O)[O-] [Comparative Example 26, L-(+)-ergothioneine]
- Elongated plant height, ratio to untreated control (wheat [1]): 1.1

SMILES: OC[C@H]1O[C@H](O[C@H]2O[C@H](CO)[C@@H](O)[C@H](O)[C@H]2O)[C@H](O)[C@@H](O)[C@@H]1O [compound 30, trehalose]
- Elongated plant height, ratio to untreated control (wheat [2]): 1.0

SMILES: C[N+](C)(C)[C@@H](Cc1c[nH]c(=S)[nH]1)C(=O)[O-] [Comparative Example 48, L-(+)-ergothioneine]
- Number of fruits, ratio to untreated control (tomato (Regina)): 1.2
- Total fruit weight, ratio to untreated control (tomato (Regina)): 1.2

SMILES: C[N+](C)(C)CC(O)CC(=O)[O-] (centres unmarked) [Comparative Example 51, carnitine]
- Elongated plant height, ratio to untreated control (wheat [3]): 1.0

SMILES: C[N+](C)(C)[C@@H](Cc1c[nH]c(=S)[nH]1)C(=O)[O-] [Comparative Example 4, L-(+)-ergothioneine]
- Seed yield, ratio to untreated control [4]: 1.2

SMILES: C[N+](C)(C)[C@@H](Cc1c[nH]c(=S)[nH]1)C(=O)[O-] [Comparative Example 52, L-(+)-ergothioneine]
- Elongated plant height, ratio to untreated control (wheat [5]): 1.1

SMILES: C[N+](C)(C)[C@@H](Cc1c[nH]c(=S)[nH]1)C(=O)[O-] [Comparative Example 43, L-(+)-ergothioneine]
- Total number of flowers and buds, ratio to untreated control (tomato (Micro Tom)): 1.1

SMILES: C[N+](C)(C)[C@@H](Cc1c[nH]c(=S)[nH]1)C(=O)[O-] [Comparative Example 8, L-(+)-ergothioneine]
- Elongated plant height, ratio to untreated control (rapeseed [6]): 1.2

SMILES: OC[C@H]1O[C@H](O[C@H]2O[C@H](CO)[C@@H](O)[C@H](O)[C@H]2O)[C@H](O)[C@@H](O)[C@@H]1O [compound 53, trehalose]
- Elongated plant height, ratio to untreated control (wheat [5]): 1.0

SMILES: N=C(N)NCCC[C@H](N)C(=O)O [Comparative Example 9, L-arginine]
- Elongated plant height, ratio to untreated control (rapeseed [6]): 0.9

SMILES: NC(=O)C[C@H](N)C(=O)O [compound 11, L-asparagine]
- Elongated plant height, ratio to untreated control (rapeseed [7]): 1.1

SMILES: C[N+](C)(C)[C@@H](Cc1c[nH]c(=S)[nH]1)C(=O)[O-] [Comparative Example 24, L-(+)-ergothioneine]
- Elongated plant height, ratio to untreated control (rapeseed [8]): 1.1

SMILES: C[N+](C)(C)CC(=O)[O-] [compound 6, glycine betaine]
- Seed yield, ratio to untreated control [4]: 1.0

SMILES: C[N+](C)(C)[C@@H](Cc1c[nH]c(=S)[nH]1)C(=O)[O-] [Comparative Example 55, L-(+)-ergothioneine]
- Elongated plant height, ratio to untreated control (wheat [9]): 1.1

SMILES: O=C(O)CC(O)(CC(=O)O)C(=O)O [Comparative Example 5, citric acid]
- Seed yield, ratio to untreated control [4]: 0.8

SMILES: N[C@@H](CCC(=O)O)C(=O)O [compound 45, L-glutamic acid]
- Total number of flowers and buds, ratio to untreated control (tomato (Micro Tom)): 1.0

SMILES: NCCCC[C@H](N)C(=O)O [compound 12, L-lysine]
- Elongated plant height, ratio to untreated control (rapeseed [7]): 0.6

SMILES: O=c1cc[nH]c(=O)[nH]1 [Comparative Example 25, uracil]
- Elongated plant height, ratio to untreated control (rapeseed [8]): 1.0

SMILES: C[N+](C)(C)[C@@H](Cc1c[nH]c(=S)[nH]1)C(=O)[O-] [Comparative Example 10, L-(+)-ergothioneine]
- Elongated plant height, ratio to untreated control (rapeseed [7]): 1.1

SMILES: C[N+](C)(C)[C@@H](Cc1c[nH]c(=S)[nH]1)C(=O)[O-] [Comparative Example 29, L-(+)-ergothioneine]
- Elongated plant height, ratio to untreated control (wheat [2]): 1.1

SMILES: O=c1cc[nH]c(=O)[nH]1 [compound 56, uracil]
- Elongated plant height, ratio to untreated control (wheat [9]): 1.1

SMILES: N=C(N)NCCC[C@H](N)C(=O)O [compound 44, L-arginine]
- Total number of flowers and buds, ratio to untreated control (tomato (Micro Tom)): 1.0

SMILES: N=C(N)NCCC[C@H](N)C(=O)O [Comparative Example 49, L-arginine]
- Number of fruits, ratio to untreated control (tomato (Regina)): 1.0
- Total fruit weight, ratio to untreated control (tomato (Regina)): 0.9

SMILES: O=c1cc[nH]c(=O)[nH]1 [compound 57, uracil]
- Elongated plant height, ratio to untreated control (wheat [9]): 1.0

SMILES: C[N+](C)(C)[C@@H](Cc1c[nH]c(=S)[nH]1)C(=O)[O-] [Comparative Example 50, L-(+)-ergothioneine]
- Elongated plant height, ratio to untreated control (wheat [3]): 1.1

SMILES: Nc1nc2nc[nH]c2c(=O)[nH]1 [compound 27, guanine]
- Elongated plant height, ratio to untreated control (wheat [1]): 0.9

SMILES: O=c1cc[nH]c(=O)[nH]1 [compound 58, uracil]
- Elongated plant height, ratio to untreated control (wheat [9]): 1.0

SMILES: O[C@H]1[C@H](O)[C@@H](O)[C@H](O)[C@@H](O)[C@H]1O [compound 31, inositol]
- Elongated plant height, ratio to untreated control (wheat [2]): 0.9

SMILES: OC[C@H]1O[C@H](O[C@H]2O[C@H](CO)[C@@H](O)[C@H](O)[C@H]2O)[C@H](O)[C@@H](O)[C@@H]1O [compound 54, trehalose]
- Elongated plant height, ratio to untreated control (wheat [5]): 0.9

Source: patent US20260293896A1, “PLANT GROWTH REGULATOR, PLANT GROWTH ACCELERATION METHOD, OR PLANT GROWTH-REGULATING PRODUCT” (KUREHA CORPORATION, priority 2022, published 2026)
